The values that follow come from the supplement of paper PMC10331698.

± gives the standard deviation of the averaged measurements.

Holding throughout (assay): LOEC (log10 uM (lowest observed effect concentration))
Compound in experiment [1]: OCCCC(F)(F)C(F)(F)C(F)(F)C(F)(F)C(F)(F)C(F)(F)C(F)(F)F [7:3 Fluorotelomer alcohol]
How it is done:
(§1)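 BioMAP Diversity Plus panel in human primary cell co-cultures, 4 concentrations in duplicate blinded samples. Responses are log10 fold change versus DMSO control, processed with tcpl v2.1.0. A hit is called when responses at any concentration exceed the cutoff (the larger of 3*bmad or log10(1.2)); the lowest observed effect concentration (modl_ga, log10 uM) is reported for hits.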

Compound in the next experiment: O=C(O)C(F)(F)C(F)(F)C(F)(F)C(F)(F)C(F)(F)C(F)(F)C(F)(F)C(F)(F)C(F)(F)F [Perfluorodecanoic acid]
As for the experimental part: as §1

Compound in experiment [2]: CCN(CCO)S(=O)(=O)C(F)(F)C(F)(F)C(F)(F)C(F)(F)C(F)(F)C(F)(F)C(F)(F)C(F)(F)F [N-Ethyl-N-(2-hydroxyethyl)perfluorooctanesulfonamide]
As for the experimental part: as §1

In the case of CASM3C SAA down, in experiment [1], the “LOEC (log10 uM)” value worked out at 1.78.
Regarding CASM3C MCP1 down, the “LOEC (log10 uM)” value in experiment [1] was 1.3.
Consider hDFCGF EGFR down, for which the “LOEC (log10 uM)” value in experiment [1] amounted to 1.3.
In the case of BF4T VCAM1 down, the results for the “LOEC (log10 uM)” value (in experiment [1]; in the experiment with Perfluorodecanoic acid) were 1.78 and 1.3, respectively.
Regarding MyoF CollagenIV down, the “LOEC (log10 uM)” value in experiment [1] was 1.78.
Consider BF4T uPA down, for which the “LOEC (log10 uM)” value is 1.78 in experiment [1] and 1.3 with Perfluorodecanoic acid.
For the test system BE3C Keratin818 down, the results for the “LOEC (log10 uM)” value (in experiment [1]; in the experiment with Perfluorodecanoic acid) were 1.78 and 1.3, respectively.
As to CASM3C LDLR down, the “LOEC (log10 uM)” value in experiment [2] came out at 1.07 ± 0.32; in experiment [1], 1.78.
Regarding IMphg ESelectin up, the “LOEC (log10 uM)” value in experiment [2] came to 0.845.
4H uPAR down: the “LOEC (log10 uM)” value (in experiment [1]; with Perfluorodecanoic acid) was 1.78 throughout.
For KF3CT MCP1 down, the entries for the “LOEC (log10 uM)” value (in experiment [1]; with Perfluorodecanoic acid) were 1.54 ± 0.34 and 1.07 ± 0.32, respectively.
IMphg MCP1 down: the “LOEC (log10 uM)” value (in experiment [1]; in the experiment with Perfluorodecanoic acid) was 1.78 in each case.
As for BT Bcell Proliferation down, the “LOEC (log10 uM)” value is 1.54 ± 0.34 in experiment [2] and 1.3 in experiment [1].
MyoF TIMP1 down: the “LOEC (log10 uM)” value (in experiment [1]; in the experiment with Perfluorodecanoic acid) was 1.78 in each case.
In the case of LPS Thrombomodulin down, the “LOEC (log10 uM)” value (in experiment [1]; with Perfluorodecanoic acid) was 1.78 in each case.
Turning to LPS Thrombomodulin up, the “LOEC (log10 uM)” value in experiment [2] was 0.573 ± 0.39.
Take 3C Thrombomodulin up: in experiment [2], the “LOEC (log10 uM)” value was found to be 1.3.
For the test system KF3CT ICAM1 down, the “LOEC (log10 uM)” value is 1.54 ± 0.34 in experiment [1] and 1.78 with Perfluorodecanoic acid.
As to LPS Eselectin down, the “LOEC (log10 uM)” value (in experiment [1]; with Perfluorodecanoic acid) was 1.78 in each case.
As to SAg MIG down, the “LOEC (log10 uM)” value (in experiment [1]; in the experiment with Perfluorodecanoic acid) was 1.78 each time.
For the test system CASM3C MCSF down, the “LOEC (log10 uM)” value in experiment [1] worked out at 1.54 ± 0.34.
As for BE3C EGFR down, the “LOEC (log10 uM)” value in experiment [2] and in experiment [1] was 1.78 in each case.
Turning to CASM3C IL6 down, the “LOEC (log10 uM)” value in experiment [1] was 1.78.
Consider 3C VCAM1 down, for which the “LOEC (log10 uM)” value in experiment [1] came to 1.3; with Perfluorodecanoic acid, 1.78.
As to IMphg MIP1a up, the “LOEC (log10 uM)” value in experiment [2] is 1.3; in experiment [1], 1.78.
Regarding KF3CT TIMP2 down, the “LOEC (log10 uM)” value came out at 1.3 in experiment [1] and 1.78 with Perfluorodecanoic acid.
For 4H MCP1 down the same measures were 1.78 and 1.78.
Take BF4T MMP1 down: the “LOEC (log10 uM)” value with Perfluorodecanoic acid worked out at 1.3.
Regarding CASM3C Thrombomodulin up, the “LOEC (log10 uM)” value in experiment [2] amounted to 1.3.
For the test system 4H VCAM1 down, the “LOEC (log10 uM)” value (in experiment [1]; with Perfluorodecanoic acid) was 1.78 in each case.
As for 4H VEGFRII down, the “LOEC (log10 uM)” value (in experiment [1]; with Perfluorodecanoic acid) was 1.78 in each case.
Take BF4T SRB down: the results for the “LOEC (log10 uM)” value (in experiment [1]; with Perfluorodecanoic acid) were 1.78 and 1.3, respectively.
For 3C Eselectin down the same measures were 1.54 ± 0.34 and 1.78.
For the test system BF4T tPA up, the “LOEC (log10 uM)” value in experiment [2] was 1.78.
As for KF3CT IL8 down, the “LOEC (log10 uM)” value in experiment [2] was 0.845; in experiment [1], 1.78.
BF4T IL8 down: the “LOEC (log10 uM)” value in experiment [1] was 1.78.
Regarding CASM3C uPAR down, the entries for the “LOEC (log10 uM)” value in experiment [2] and in experiment [1] were 1.54 ± 0.34 and 1.78, respectively.
In the case of BE3C ICAM1 down, the “LOEC (log10 uM)” value in experiment [1] was 1.78; with Perfluorodecanoic acid, 1.3.
Turning to BF4T CD90 down, the “LOEC (log10 uM)” value in experiment [1] turned out to be 1.78; with Perfluorodecanoic acid, 1.3.
Turning to BF4T MMP3 down, the figures for the “LOEC (log10 uM)” value (in experiment [1]; with Perfluorodecanoic acid) were 1.78 and 1.54 ± 0.34, respectively.
For BE3C MMP1 down, the entries for the “LOEC (log10 uM)” value (in experiment [1]; in the experiment with Perfluorodecanoic acid) were 1.78 and 1.3, respectively.
As for LPS TissueFactor down, the “LOEC (log10 uM)” value (in experiment [1]; in the experiment with Perfluorodecanoic acid) was 1.78 throughout.
In the case of BT xIL6 down, the “LOEC (log10 uM)” value in experiment [2] was 1.78; in experiment [1] it was 1.3.
For the test system MyoF Decorin down, the “LOEC (log10 uM)” value (in experiment [1]; with Perfluorodecanoic acid) was 1.78 each time.
CASM3C PAI1 down: the “LOEC (log10 uM)” value in experiment [1] was determined as 1.78.
Take IMphg ESelectin down: in the experiment with Perfluorodecanoic acid, the “LOEC (log10 uM)” value came out at 1.78.
As to MyoF IL8 down, the “LOEC (log10 uM)” value in experiment [2] stood at 0.845.
Still for that read-out and setting: as for LPS TissueFactor up, the figure is 1.07 ± 0.32.
In the case of SAg IL8 down, the results for the “LOEC (log10 uM)” value (in experiment [1]; with Perfluorodecanoic acid) were 1.54 ± 0.34 and 1.78, respectively.
As for SAg Eselectin down, the “LOEC (log10 uM)” value (in experiment [1]; in the experiment with Perfluorodecanoic acid) was 1.78 each time.
